The assay has as its target human PDE10A2 (Homo sapiens (Human), UniProt Q9Y233). Description: PDE10 fluorescence polarization (IMAP FP) inhibition assay. Particulars: human PDE10A2, FAM-labeled cAMP substrate, read-out: PDE10A Ki. The assay is classed as biochemical. In outline:
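Cytoplasmic lysate of AD293 cells transiently expressing human PDE10A2 (diluted to ~20% substrate conversion) incubated 30 min at room temperature with 50 nM FAM-cAMP in Tris pH 7.2 buffer with MgCl2, DTT. Activity read by IMAP fluorescence polarization. 0% inhibition set with 1% DMSO, 100% with reference PDE10 inhibitor.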
Background: In fluorescence polarisation assays a small probe gives low polarisation when free and higher when bound to something large.
Sequence of human PDE10A2 (Q9Y233 267-1055): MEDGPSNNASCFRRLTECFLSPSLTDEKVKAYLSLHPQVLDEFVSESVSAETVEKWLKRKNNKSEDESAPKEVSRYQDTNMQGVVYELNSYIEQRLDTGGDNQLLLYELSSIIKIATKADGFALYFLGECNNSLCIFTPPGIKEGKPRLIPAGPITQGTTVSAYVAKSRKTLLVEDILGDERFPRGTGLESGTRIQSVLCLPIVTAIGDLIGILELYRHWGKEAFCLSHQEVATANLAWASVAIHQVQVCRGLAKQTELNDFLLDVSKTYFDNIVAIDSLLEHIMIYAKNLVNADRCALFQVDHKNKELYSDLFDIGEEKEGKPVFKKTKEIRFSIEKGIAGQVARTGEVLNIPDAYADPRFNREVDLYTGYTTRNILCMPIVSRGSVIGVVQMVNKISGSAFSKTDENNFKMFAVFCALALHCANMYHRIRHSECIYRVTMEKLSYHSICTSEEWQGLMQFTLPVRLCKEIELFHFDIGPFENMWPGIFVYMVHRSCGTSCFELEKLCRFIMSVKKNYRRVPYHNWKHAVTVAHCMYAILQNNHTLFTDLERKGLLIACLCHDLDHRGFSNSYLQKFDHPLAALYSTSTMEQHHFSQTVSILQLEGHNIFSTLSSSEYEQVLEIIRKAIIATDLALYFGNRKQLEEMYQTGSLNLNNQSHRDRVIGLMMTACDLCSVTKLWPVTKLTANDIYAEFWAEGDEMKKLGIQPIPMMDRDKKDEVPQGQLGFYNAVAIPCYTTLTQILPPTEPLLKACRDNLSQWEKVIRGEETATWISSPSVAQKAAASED
In general, Ki refers to a dissociation constant, usually derived from enzyme kinetics or from competition with a known ligand. Consider `CCOC(=O)c1cn(C)c(=O)cc1-c1cnc(C)nc1OC[C@H]1C[C@@H]1c1ccc(OC)cn1` [Example 108, ethyl 4-(4-(((1S,2S)-2-(5-methoxypyridin-2-yl)cyclopropyl)methoxy)-2-methylpyrimidin-5-yl)-1-methyl-6-oxo-1,6-dihydropyridine-3-carboxylate], for which the inhibitory constant (Ki) is 100 nM.
Take `CCn1c(C)c(-c2cnc(C)nc2OC[C@H]2C[C@@H]2c2ccc(C)cn2)ccc1=O` [Example 4, 1-ethyl-6-methyl-5-(2-methyl-4-(((1S,2S)-2-(5-methylpyridin-2-yl)cyclopropyl)methoxy)pyrimidin-5-yl)pyridin-2(1H)-one]: the Ki was found to be 1.95 nM.
Consider `Cc1ncc(-c2cc(=O)n(C)cc2Cl)c(OC[C@H]2C[C@@H]2c2ccc3ccccc3n2)n1` [Example 102, 5-chloro-1-methyl-4-(2-methyl-4-(((1S,2S)-2-(quinolin-2-yl)cyclopropyl)methoxy)pyrimidin-5-yr)pyridin-2(1H)-one], for which the inhibitory constant (Ki) was 0.04 nM.
With `CCc1cc(-c2cnc(C)nc2OC[C@H]2C[C@@H]2c2ccc(C)cn2)cn(C)c1=O` [Example 55, 3-ethyl-1-methyl-5-(2-methyl-4-(((1S,2S)-2-(5-methylpyridin-2-yl)cyclopropyl)methoxy)pyrimidin-5-yl)pyridin-2(1H)-one] the figure was 0.347 nM.
For `Cc1ccc([C@H]2C[C@@H]2COc2nc(C)ncc2-c2ccn(C(F)F)c(=O)c2)nc1` [Example 116, 1-(difluoromethyl)-4-(2-methyl-4-(((1S,2S)-2-(5-methylpyridin-2-yl)cyclopropyl)methoxy)pyrimidin-5-yl)pyridin-2(1H)-one], the inhibitory constant (Ki) came out at 1.83 nM.
With `COc1ccc([C@H]2C[C@@H]2COc2nc(C)ncc2-c2cc(=O)n(C)cc2SC)nc1` [Example 92, 4-(4-(((1S,2S)-2-(5-methoxypyridin-2-yl)cyclopropyl)methoxy)-2-methylpyrimidin-5-yl)-1-methyl-5-(methylthio)pyridin-2(1H)-one] the figure was 12.5 nM.
`CCn1cc(-c2cnc(C)nc2OC[C@H]2C[C@@H]2c2ccc(OC)cn2)ccc1=O` [Example 24, 1-ethyl-5-(4-(((1S,2S)-2-(5-methoxypyridin-2-yl)cyclopropyl)methoxy)-2-methylpyrimidin-5-yl)pyridin-2(1H)-one]: the inhibition constant Ki was 1.07 nM.
As for `COc1ccc([C@H]2C[C@@H]2COc2nc(C)ncc2-c2cc(F)c(=O)n(C)c2)nc1` [Example 18, 3-fluoro-5-(4-(((1S,2S)-2-(5-methoxypyridin-2-yl)cyclopropyl)methoxy)-2-methylpyrimidin-5-yl)-1-methylpyridin-2(1H)-one], the Ki was found to be 1.29 nM.
For `COc1ccc([C@H]2C[C@@H]2COc2nc(C)ncc2-c2cc(C#N)c(=O)n(C)c2C)nc1` [Example 60, 5-(4-(((1S,2S)-2-(5-methoxypyridin-2-yl)cyclopropyl)methoxy)-2-methylpyrimidin-5-yl)-1,6-dimethyl-2-oxo-1,2-dihydropyridine-3-carbonitrile], the Ki turned out to be 0.117 nM.
As for `COc1ccc([C@H]2C[C@@H]2COc2nc(C)ncc2-c2cc(=O)n(C)cc2S(C)(=O)=O)nc1` [Example 98, 4-(4-(((1S,2S)-2-(5-methoxypyridin-2-yl)cyclopropyl)methoxy)-2-methylpyrimidin-5-yl)-1-methyl-5-(methylsulfonyl)pyridin-2(1H)-one], the inhibition constant Ki is 67.5 nM.
On to `Cc1ncc(-c2ccc(=O)n(-c3ccccc3)c2)c(OC[C@H]2C[C@@H]2c2ccc3ccccc3n2)n1` [Example 10, 5-(2-methyl-4-(((1S,2S)-2-(quinolin-2-yl)cyclopropyl)methoxy)pyrimidin-5-yl)-1-phenylpyridin-2(1H)-one], for which the Ki was found to be 0.216 nM.
With `COc1ccc([C@H]2C[C@@H]2COc2nc(C)ncc2-c2cc(=O)[nH]cc2Cl)nc1` [Example 83, 5-chloro-4-(4-(((1S,2S)-2-(5-methoxypyridin-2-yl)cyclopropyl)methoxy)-2-methylpyrimidin-5-yl)pyridin-2(1H)-one], the Ki is 0.39 nM.
`COc1ccc([C@H]2C[C@@H]2COc2nc(C)ncc2-c2ccc(=O)n(-c3ccccc3)c2)nc1` [Example 19, 5-(4-(((1S,2S)-2-(5-methoxypyridin-2-yl)cyclopropyl)methoxy)-2-methylpyrimidin-5-yl)-1-phenylpyridin-2(1H)-one]: the Ki is 4.68 nM.
In the case of `COc1ccc([C@H]2C[C@@H]2COc2nc(C)ncc2-c2cc(C)n(C)c(=O)c2)nc1` [Example 87, 4-(4-(((1S,2S)-2-(5-methoxypyridin-2-yl)cyclopropyl)mcthoxy)-2-methylpyrimidin-5-yl)-1,6-dimethylpyridin-2(1H)-one], the Ki was found to be 0.785 nM.
Take `Cc1ccc([C@H]2C[C@@H]2COc2nc(C)ncc2-c2cc(C#N)c(=O)n(C)c2C)nc1` [Example 59, 1,6-dimethyl-5-(2-methyl-4-(((1S,2S)-2-(5-methylpyridin-2-yl)cyclopropyl)methoxy)pyrimidin-5-yl)-2-oxo-1,2-dihydropyridine-3-carbonitrile]: the Ki is 0.426 nM.
Consider `Cc1ccc([C@H]2C[C@@H]2COc2nc(C)ncc2-c2ccc(=O)n(CCC#N)c2)nc1` [Example 46, 3-(5-(2-methyl-4-(((1S,2S)-2-(5-methylpyridin-2-yl)cyclopropyl)methoxy)pyrimidin-5-yl)-2-oxopyridin-1(2H)-yl)propanenitrile], for which the Ki amounted to 2.15 nM.
Consider `COc1ccc([C@H]2C[C@@H]2COc2nc(C)ncc2-c2ccc(=O)[nH]n2)nc1` [Example 63, 6-(4-(((1S,2S)-2-(5-methoxypyridin-2-yl)cyclopropyl)methoxy)-2-methylpyrimidin-5-yl)pyridazin-3(2H)-one], for which the Ki was determined as 4.42 nM.
`COc1ccc([C@H]2C[C@@H]2COc2nc(C)ncc2-c2cc(=O)n(C)cc2[S+](C)[O-])nc1` (single isomer, unassigned) [Example 110, 4-(4-(((1S,2S)-2-(5-methoxypyridin-2-yl)cyclopropyl)methoxy)-2-methylpyrimidin-5-yl)-1-methyl-5-(methylsulfinyl)pyridin-2(1H)-one, S or R]: the inhibition constant Ki was 49 nM.
In the case of `Cc1ncc(-c2ccn(C)c(=O)c2)c(OC[C@H]2C[C@@H]2c2ccc(Cl)cn2)n1` [Example 107, 4-(4-(((1S,2S)-2-(5-chloropyridin-2-yl)cyclopropyl)methoxy)-2-methylpyrimidin-5-yl)-1-methylpyridin-2(1H)-one], the inhibitory constant (Ki) worked out at 14.7 nM.
Consider `[2H]C([2H])([2H])n1cc(-c2cnc(C)nc2OC[C@H]2C[C@@H]2c2ccc(OC)cn2)ccc1=O` [Example 51, 5-(4-(((1S,2S)-2-(5-methoxypyridin-2-yl)cyclopropyl)methoxy)-2-methylpyrimidin-5-yl)-1-methylpyridin-2(1H)-one], for which the Ki was found to be 0.946 nM.
As for `Cc1ncc(-c2cc(=O)n(C)cc2C)c(OC[C@H]2C[C@@H]2c2ccccn2)n1` [Example 74, 1,5-dimethyl-4-(2-methyl-4-(((1S,2S)-2-(pyridin-2-yl)cyclopropyl)methoxy)pyrimidin-5-yl)pyridin-2(1H)-one], the Ki turned out to be 16.6 nM.
On to `Cc1ccc([C@H]2C[C@@H]2COc2nc(C)ncc2-c2ccc(=O)n(C)c2C)nc1` [Example 3, 1,6-dimethyl-5-(2-methyl-4-(((1S,2S)-2-(5-methylpyridin-2-yl)cyclopropyl)methoxy)pyrimidin-5-yl)pyridin-2(1H)-one], for which the inhibition constant (Ki) was found to be 0.217 nM.
In the case of `Cc1ccc([C@H]2C[C@@H]2COc2nc(C)ncc2-c2ccn(CCC#N)c(=O)c2)nc1` [Example 119, 3-(4-(2-methyl-4-(((1S,2S)-2-(5-methylpyridin-2-yl)cyclopropyl)methoxy)pyrimidin-5-yl)-2-oxopyridin-1(2H)-yl)propanenitrile], the Ki was 1.58 nM.
For the compound `COc1cc(-c2cnc(C)nc2OC[C@H]2C[C@@H]2c2ccc3c(n2)CCC3)cn(C)c1=O` [Example 54, 5-(4-(((1S,2S)-2-(6,7-dihydro-5H-cyclopenta[b]pyridin-2-yl)cyclopropyl)methoxy)-2-methylpyrimidin-5-yl)-3-methoxy-1-methylpyridin-2(1H)-one], the Ki worked out at 0.045 nM.
Consider `COC(=O)Cn1cc(-c2cnc(C)nc2OC[C@H]2C[C@@H]2c2ccc(OC)cn2)ccc1=O` [Example 47, methyl 2-(5-(4-(((1S,2S)-2-(5-methoxypyridin-2-yl)cyclopropyl)methoxy)-2-methylpyrimidin-5-yl)-2-oxopyridin-1(2H)-yl)acetate], for which the Ki was 3.65 nM.
Turning to `C=CCn1ccc(-c2cnc(C)nc2OC[C@H]2C[C@@H]2c2ccc(OC)cn2)cc1=O` [Example 122, 1-allyl-4-(4-(((1S,2S)-2-(5-methoxypyridin-2-yl)cyclopropyl)methoxy)-2-methylpyrimidin-5-yl)pyridin-2(1H)-one], the Ki is 0.458 nM.
With `C=CCn1ccc(-c2cnc(C)nc2OC[C@H]2C[C@@H]2c2ccc(C)cn2)cc1=O` [Example 123, 1-allyl-4-(2-methyl-4-(((1S,2S)-2-(5-methylpyridin-2-yl)cyclopropyl)methoxy)pyrimidin-5-yl)pyridin-2(1H)-one] the figure was 0.508 nM; with `Cc1ccc([C@H]2C[C@@H]2COc2nc(C)ncc2-c2ccc(=O)n(C3CC3)c2)nc1` [Example 23, 1-cyclopropyl-5-(2-methyl-4-(((1S,2S)-2-(5-methylpyridin-2-yl)cyclopropyl)methoxy)pyrimidin-5-yl)pyridin-2(1H)-one], 0.519 nM.
On to `COc1ccc([C@H]2C[C@@H]2COc2nc(C)ncc2-c2ccc(=O)n(C)c2)nc1` [Example 2, 5-(4-(((1S,2S)-2-(5-methoxypyridin-2-yl)cyclopropyl)methoxy)-2-methylpyrimidin-5-yl)-1-methylpyridin-2(1H)-one], for which the Ki turned out to be 1.01 nM.
For `[2H]C([2H])([2H])n1ccc(-c2cnc(C)nc2OC[C@H]2C[C@@H]2c2ccc(C)cn2)cc1=O` [Example 125, 1-methyl-4-(2-methyl-4-(((1S,2S)-2-(5-methylpyridin-2-yl)cyclopropyl)methoxy)pyrimidin-5-yl)pyridin-2(1H)-one], the Ki worked out at 1.66 nM.
